Molecular target: Full-length inactive AKT1 (Homo sapiens (Human), UniProt P31749)
Assay: Inactive Akt Alpha Screen Assay (AKT1, crosstide substrate)
Conditions: full-length inactive AKT1 activated by PDK1 and MAPKAPK2, lipid vesicles, 50 μM ATP; biotinylated crosstide substrate; read-out: Akt1 biochemical assay IC50 AlphaScreen crosstide
Procedure: AKT1 activity was assayed using the GSK3-derived biotinylated peptide substrate, crosstide (biotin-GRPRTSSFAEG), and AlphaScreen™ (Amplified Luminescent Proximity Homogeneous Assay) technology. AKT1 activation was achieved by the addition of the activating kinases PDK1 and MAPKAPK2, lipid vesicles, and ATP. The extent of peptide phosphorylation was determined using a phospho-AKT substrate antibody and acceptor beads conjugated to Protein A and donor beads conjugated to streptavidin that bind to the biotin on the peptide. Excitation of the donor beads converted ambient oxygen to excited singlet oxygen which, when in close proximity to acceptor beads, reacted with acceptor beads resulting in signal amplification.
Test inhibitors and controls ((S)-1-(5-(3-methyl-1H-indazol-5-yl)pyridin-3-yl)oxy)-3-phenylpropan-2-amine, 1-(1-(4-(7-phenyl-1H-imidazo[4,5-g]quinoxalin-6-yl)benzyl)piperidin-4-yl)-1H-benzo[d]imidazol-2(3H)-one, and 8-(4-(1-aminocyclobutyl)phenyl)-9-phenyl-[1,2,4]triazolo[3,4-f][1,6]naphthyridin-3(2H)-one) were prepared in 10% DMSO at 10-fold the desired final concentration, and added to each well of a reaction plate (Corning 96-well half-area solid white nonbinding surface plate) in a volume of 2.5 μL. […] After a 20 minute pre-incubation at room temperature, the kinase reaction was initiated by the addition of 5 μL of an activation mixture diluted in assay buffer containing biotinylated crosstide, PDK1, MAPKAPK2, DOPS/DOPC, PtdIns(3,4,5)P3, and ATP for final concentrations of 60 nM biotinylated crosstide, 0.1 nM PDK1, 0.7 nM MK2, 5.5 μM DOPS, 5.5 μM DOPC, 0.5 μM PtdIns(3,4,5)P3, and 50 μM ATP. The plates were incubated for 30 minutes at room temperature, and then stopped in the dark by the addition of 10 μL stop/detection mixture prepared in assay buffer containing EDTA, AlphaScreen™ Streptavidin Donor and Protein A Acceptor beads, and phospho-AKT substrate antibody for final concentrations of 10 mM EDTA, 500 ng/well of both AlphaScreen™ Streptavidin Donor beads and Protein A Acceptor beads, and phospho-AKT substrate antibody at a final dilution of 1:350. Assay plates were incubated for 90 minutes at room temperature in the dark, and the plates were read on a Perkin Elmer Envision Multilabel plate reader (excitation wavelength: […], emission wavelength: 570 nm).
Envision Instrument Settings: • Instrument: Perkin Elmer Envision • Plate: 96 well • Program Name: • Excitation: Ex Top • Minor: General Dual—Slot 2 • Excitation Filter: CFP430 Ex. Slot 2 • Emission Filter Emission 579—Em slot 2 • 2nd Emission Filter: None • Measurement Height (mm): 3.8 • Excitation light (%): 1 • Detector gain: 1 • 2nd detector gain: 0 • # Flashes: 10 • # Flashed/AD: 1 • Reference Signal: 383722 • AD gain: 4 • Reference Excitation (%): 100

Full-length inactive AKT1, sequence (P31749 whole entry): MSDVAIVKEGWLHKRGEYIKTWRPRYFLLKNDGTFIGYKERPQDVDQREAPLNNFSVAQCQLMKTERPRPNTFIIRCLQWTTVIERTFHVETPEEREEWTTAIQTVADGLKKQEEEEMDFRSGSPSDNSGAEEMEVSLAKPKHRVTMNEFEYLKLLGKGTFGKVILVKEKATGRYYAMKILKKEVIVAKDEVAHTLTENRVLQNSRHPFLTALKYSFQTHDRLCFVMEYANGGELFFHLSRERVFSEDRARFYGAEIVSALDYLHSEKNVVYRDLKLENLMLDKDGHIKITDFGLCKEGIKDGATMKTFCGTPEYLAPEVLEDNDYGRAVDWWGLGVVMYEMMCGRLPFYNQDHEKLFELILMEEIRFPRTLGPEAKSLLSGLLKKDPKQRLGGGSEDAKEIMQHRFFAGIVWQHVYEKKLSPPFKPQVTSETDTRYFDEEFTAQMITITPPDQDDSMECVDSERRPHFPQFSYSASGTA

Row | IC50 [nM] | Compound
1 | 12.6 | NC1(c2ccc(-n3c(-c4ccccc4)nc4ccc(-c5ccccc5)nc43)cc2)CCC1 [Cmpd 5, 1-[4-(2,5-diphenyl-3H-imidazo[4,5-b]pyridin-3-yl)phenyl] cyclobutanamine]
2 | 11.5 | NC1(c2ccc(-n3c(-c4cccnc4F)nc4ccc(-c5ccccc5)nc43)cc2)CCC1 [Cmpd 7, 1-{4-[2-(2-fluoropyridin-3-yl)-5-phenyl-3H-imidazo[4,5-b]pyridin-3-yl]phenyl}cyclobutanamine]
3 | 1.99 | NC1(c2ccc(-n3c(-c4ccccc4F)nc4ccc(-c5cccc(N6CCOCC6)c5)nc43)cc2)CCC1 [Cmpd 11, 1-{4-[2-(2-fluorophenyl)-5-(3-morpholin-4-ylphenyl)-3H-imidazo[4,5-b]pyridin-3-yl]phenyl}cyclobutanamine]
4 | 6.27 | NC(=O)c1cccc(-c2ccc3nc(-c4ccccc4)n(-c4ccc(C5(N)CCC5)cc4)c3n2)c1 [Cmpd 35, 3-{3-[4-(1-aminocyclobutyl)phenyl]-2-phenyl-3H-imidazo[4,5-b]pyridin-5-yl}benzamide]
5 | 5.71 | CN(C)C(=O)c1cccc(-c2ccc3nc(-c4ccccc4)n(-c4ccc(C5(N)CCC5)cc4)c3n2)c1 [Cmpd 36, 3-{3-[4-(1-aminocyclobutyl)phenyl]-2-phenyl-3H-imidazo[4,5-b]pyridin-5-yl}-N,N-dimethylbenzamide]
6 | 4.96 | CNC(=O)c1cccc(-c2ccc3nc(-c4ccccc4)n(-c4ccc(C5(N)CCC5)cc4)c3n2)c1 [Cmpd 37]
7 | 4.13 | NC1(c2ccc(-n3c(-c4ccccc4)nc4ccc(Nc5ccccc5)nc43)cc2)CCC1 [Cmpd 47, 3-[4-(1-aminocyclobutyl)phenyl]-N,2-diphenyl-3H-imidazo[4,5-b]pyridin-5-amine]

Continued, compound first:

Row | Compound | IC50 [nM]
8 | NC1(c2ccc(-n3c(-c4ccccc4)nc4ccc(-c5cccc(N6CCOCC6)c5)nc43)cc2)CCC1 [Cmpd 9, 1-{4-[5-(3-morpholin-4-ylphenyl)-2-phenyl-3H-imidazo[4,5-b]pyridin-3-yl]phenyl}cyclobutanamine] | 3.47
9 | NC1(c2ccc(-n3c(-c4cccs4)nc4ccc(-c5cccc(N6CCOCC6)c5)nc43)cc2)CCC1 [Cmpd 12, 1-{4-[5-(3-morpholin-4-ylphenyl)-2-(2-thienyl)-3H-imidazo[4,5-b]pyridin-3-yl]phenyl} cyclobutanamine] | 7.17
10 | NC1(c2ccc(-n3c(-c4ccsc4)nc4ccc(-c5cccc(N6CCOCC6)c5)nc43)cc2)CCC1 [Cmpd 13, 1-{4-[5-(3-morpholin-4-ylphenyl)-2-(3-thienyl)-3H-imidazo[4,5-b]pyridin-3-yl]phenyl} cyclobutanamine] | 5.78
11 | NC1(c2ccc(-n3c(-c4ccccn4)nc4ccc(-c5cccc(N6CCOCC6)c5)nc43)cc2)CCC1 [Cmpd 14, 1-{4-[5-(3-morpholin-4-ylphenyl)-2-pyridin-2-yl-3H-imidazo[4,5-b]pyridin-3-yl]phenyl} cyclobutanamine] | 1.69
12 | NC1(c2ccc(-n3c(-c4cccnc4)nc4ccc(-c5cccc(N6CCOCC6)c5)nc43)cc2)CCC1 [Cmpd 15, 1-{4-[5-(3-morpholin-4-ylphenyl)-2-pyridin-3-yl-3H-imidazo[4,5-b]pyridin-3-yl]phenyl} cyclobutanamine] | 4.3
13 | NC1(c2ccc(-n3c(-c4ccncc4)nc4ccc(-c5cccc(N6CCOCC6)c5)nc43)cc2)CCC1 [Cmpd 16, 1-{4-[5-(3-morpholin-4-ylphenyl)-2-pyridin-4-yl-3H-imidazo[4,5-b]pyridin-3-yl]phenyl} cyclobutanamine] | 7.75
14 | NC1(c2ccc(-n3c(-c4nccs4)nc4ccc(-c5cccc(N6CCOCC6)c5)nc43)cc2)CCC1 [Cmpd 17, 1-{4-[5-(3-morpholin-4-ylphenyl)-2-(1,3-thiazol-2-yl)-3H-imidazo[4,5-b]pyridin-3-yl]phenyl} cyclobutanamine] | 4.74
15 | NC1(c2ccc(-n3c(-c4cc[nH]n4)nc4ccc(-c5cccc(N6CCOCC6)c5)nc43)cc2)CCC1 [Cmpd 18, 1-{4-[5-(3-morpholin-4-ylphenyl)-2-(1H-pyrazol-3-yl)-3H-imidazo[4,5-b]pyridin-3-yl]phenyl} cyclobutanamine] | 7.27
16 | NC1(c2ccc(-n3c(-c4cc[nH]c4)nc4ccc(-c5cccc(N6CCOCC6)c5)nc43)cc2)CCC1 [Cmpd 19, 1-{4-[5-(3-morpholin-4-ylphenyl)-2-(1H-pyrrol-3-yl)-3H-imidazo[4,5-b]pyridin-3-yl]phenyl} cyclobutanamine] | 5.67
17 | COC(=O)c1ccccc1-c1nc2ccc(-c3cccc(N4CCOCC4)c3)nc2n1-c1ccc(C2(N)CCC2)cc1 [Cmpd 20, methyl 2-{3-[4-(1-aminocyclobutyl)phenyl]-5-(3-morpholin-4-ylphenyl)-3H-imidazo[4,5-b]pyridin-2-yl} benzoate] | 5260
18 | NC1(c2ccc(-n3c(C4CCCCC4)nc4ccc(-c5cccc(N6CCOCC6)c5)nc43)cc2)CCC1 [Cmpd 24, 1-{4-[2-cyclohexyl-5-(3-morpholin-4-ylphenyl)-3H-imidazo[4,5-b]pyridin-3-yl]phenyl} cyclobutanamine] | 1160
19 | NC1(c2ccc(-n3c(-c4ccc(O)cc4)nc4ccc(-c5cccc(N6CCOCC6)c5)nc43)cc2)CCC1 [Cmpd 26, 4-{3-[4-(1-aminocyclobutyl)phenyl]-5-(3-morpholin-4-ylphenyl)-3H-imidazo[4,5-b]pyridin-2-yl}phenol] | 4.42
20 | NC1(c2ccc(-n3c(-c4cccc(F)c4)nc4ccc(-c5cccc(N6CCOCC6)c5)nc43)cc2)CCC1 [Cmpd 30, 1-{4-[2-(3-fluorophenyl)-5-(3-morpholin-4-ylphenyl)-3H-imidazo[4,5-b]pyridin-3-yl]phenyl}cyclobutanamine] | 4.78
21 | NC1(c2ccc(-n3c(-c4ccc(F)cc4)nc4ccc(-c5cccc(N6CCOCC6)c5)nc43)cc2)CCC1 [Cmpd 31, 1-{4-[2-(4-fluorophenyl)-5-(3-morpholin-4-ylphenyl)-3H-imidazo[4,5-b]pyridin-3-yl]phenyl}cyclobutanamine] | 35.5
22 | NC1(c2ccc(-n3c(-c4ccc(Cl)cc4)nc4ccc(-c5cccc(N6CCOCC6)c5)nc43)cc2)CCC1 [Cmpd 34, 1-{4-[2-(4-chlorophenyl)-5-(3-morpholin-4-ylphenyl)-3H-imidazo[4,5-b]pyridin-3-yl]phenyl}cyclobutanamine] | 5.9
23 | NC1(c2ccc(-n3c(-c4cnccn4)nc4ccc(-c5cccc(N6CCOCC6)c5)nc43)cc2)CCC1 [Cmpd 42, 1-{4-[5-(3-morpholin-4-ylphenyl)-2-pyrazin-2-yl-3H-imidazo[4,5-b]pyridin-3-yl]phenyl} cyclobutanamine] | 4.27
24 | NC1(c2ccc(-n3c(C4CC4)nc4ccc(-c5cccc(N6CCOCC6)c5)nc43)cc2)CCC1 [Cmpd 44, 1-{4-[2-cyclopropyl-5-(3-morpholin-4-ylphenyl)-3H-imidazo[4,5-b]pyridin-3-yl]phenyl}cyclobutanamine] | 871

From patent US8815854B2, “Substituted imidazopyridinyl compounds” (ArQule, Inc., priority 2011, dated 2014)
